Laboratory results published in patent publication US20070116836A1, “High-Potency Sweetener Composition for Treatment and/or Prevention of Osteoporosis and Compositions Sweetened Therewith” (THE COCA-COLA COMPANY, priority 2005, published 2007).

Key:
[1] = Rate of dissolution in H2O at 25° C. of rebaudioside A polymorph and amorphous forms; format: physicochemical; details: grade in words
[2] = Sensory evaluation of sweetness linger by expert panel, Example Set G (citric acid/potassium citrate base); format: in vivo; parameters: key: 0=no sweetness linger; 1=very slight sweetness linger; 2=slight sweetness linger; 3=moderate sweetness linger; 4=moderately high sweetness linger; 5=high sweetness linger; details: scale 0-5; 400 ppm REBA in citric acid/potassium citrate composition equivalent to diet lemon-lime beverage, additive per example; sugar control 8 g in 100 ml citrate buffer
Experimental: Sensory evaluation of the samples prepared in Example Set G was carried out under the following protocol, similar to that described hereinabove. In this test protocol, none of the samples were swallowed. All samples were expectorated and the mouth was rinsed with water after the tasting. Immediately upon sensing maximal sweetness, the sample was expectorated, the mouth was rinsed with water and the rate of sweetness decay (“Sweetness Linger”) was measured, where attention was focused on the sweetness 3-4 min after the water rinse. After sample tasting was complete, a salty oyster cracker was chewed followed by a water rinse, and at least 5 minutes followed before tasting the next sample. […]
The effects of formulation change on the sweetness linger of 400 ppm REBA (equivalent to 8 g sucrose) in a citric acid/potassium citrate composition equivalent to that in a diet lemon-lime beverage were evaluated. The sweetness linger rating of this solution was determined to be 5.
8 g of sugar was dissolved in 100 ml of citrate buffer. The sweetness linger rating of this control sample was determined to be 0.

[3] = Sensory evaluation of sweetness linger by expert panel, Example Set H (phosphoric acid base); format: in vivo; parameters: key: 0=no sweetness linger; 1=very slight sweetness linger; 2=slight sweetness linger; 3=moderate sweetness linger; 4=moderately high sweetness linger; 5=high sweetness linger; details: scale 0-5; 500 ppm REBA (H41: 360 ppm) in carbon-treated water, phosphoric acid (75%) to pH 2.4-2.5, additive per example; sugar control 10 g in 100 ml

Question: With rebaudioside A [Form 1] as the molecule, how does the “Rate of dissolution in H2O at 25° C.” value [1] read?
Answer: Very low

Question: For rebaudioside A [Form 3], which “Rate of dissolution in H2O at 25° C.” value [1] is on record?
Answer: High

Question: Which results are given for rebaudioside A?
Answer: Sweetness linger [2]: 5; Sweetness linger [3]: 5

Question: Which “Rate of dissolution in H2O at 25° C.” value [1] does the source give for rebaudioside A [Form 4] here?
Answer: High

Question: Which results are given for `OC[C@H]1O[C@@](CO)(O[C@H]2O[C@H](CO)[C@@H](O)[C@H](O)[C@H]2O)[C@@H](O)[C@@H]1O` [sugar, sucrose]?
Answer: Sweetness linger [2]: 0; Sweetness linger [3]: 0

Question: For rebaudioside A [Form 2], which “Rate of dissolution in H2O at 25° C.” value [1] is on record?
Answer: Intermediate
